# Experimental data taken from patent publication US20050096392A1, “Use of creatine pyruvate for increasing stamina during highly intensive intermittent physical exertion” (priority 2002, published 2005).
# Tests used:
# [1] = set-up: species or system human; settings: in vivo
# Method: (§1) In a double-blind study, creatine pyruvate (A) and placebo (B) were tested. The male experimental subjects (n=32; age: 18 to 32) were divided into groups, each of n=16, so that the maximum oxygen consumption per kilogram of body weight was on average the same in the groups, and the types of sport undertaken were usually distributed the same as far as possible. This led to the fact that the mean strength in the intermittent studies was not the same. The test subjects of group A were administered 5.0 g of creatine pyruvate per day over a period of 28 days. The initial test (IT) was carried out on the 1st day, and the closing test (CT) on the 29th day. In the morning between 8 and 11 o'clock fasted blood sampling, record of anthropometric data; standardized breakfast; then intermittent test of the lower arm musculature.
# lower arm musculature [2] = experiment: Intermittent test with the lower arm musculature, mechanical parameters; assay type: in vivo, human
# Method: as §1, with “day.” for “day. In the morning between 8 and 11 o'clock fasted blood sampling, record of anthropometric data; standardized breakfast; then intermittent test of the lower arm musculature.”
# (§2) The arm of the seated test subjects is positioned extended (horizontally) at the side at shoulder height. The hand lies on an adjustable-weight gripper (stroke length: 3 cm). The arm is supported at the elbow. The test subjects must perform highly intensive intermittent work, for which they compress the adjustable-weight gripper at the maximum possible frequency. The weight in the basket is 80% of the maximum weight achieved in a preliminary test in which the load, starting at 7.5 kg, is increased by 2.5 kg every 3 minutes. The contraction frequency is 24/min. The maximum weight is reached when the 3 cm stroke length can no longer be overcome. Blood is taken from the cubital vein on the working arm. The skin blood flow is reduced by cooling. Blood was taken in each case before and after the 1st, 2nd, 6th, 9th and 10th period.
# Via an inductive distance measurer on the adjustable-weight gripper, the stroke length of the weight basket was measured. From the signal, 4 measurements can be obtained. • 1. Contraction rate • 2. Stroke length • 3. Duration of the total contraction • 4. Integral of stroke length over time
# The force is the mean force during the shortening phase, not the point-measurement maximum force. It is only the force which was developed additionally to the force necessary to overcome the force of gravity. In addition, the relaxation rate and the contraction frequency were determined. The evaluation was started with the fourth contraction. Thereafter, each contraction was evaluated over 12 seconds. The mechanical parameters were determined in the 1st, 2nd, 6th and 9th interval.
# [3] = Double-blind study, anthropometric data; assay type: in vivo, human
# Method: as §1, with “musculature. […] The circumference of the thickest part of the lower arm increased in group A (p<0.005).” for “musculature.”
# lower arm musculature [4] = experiment: Intermittent test with the lower arm musculature, blood tests and acid-base status; assay type: in vivo, human
# Method: as §1, with “day.” for “day. In the morning between 8 and 11 o'clock fasted blood sampling, record of anthropometric data; standardized breakfast; then intermittent test of the lower arm musculature.”
# as §2, with “Blood was taken in each case before and after the 1st, 2nd, 6th, 9th and 10th period.” left out
# [5] = administration of creatine pyruvate
# [6] = highly intensive intermittent work, 80% of maximum weight, analysis of variance, p<0.01
# [7] = closing test, day 29, after 5.0 g per day over 28 days
# [8] = initial vs closing test, 5.0 g per day over 28 days
# [9] = initial vs closing test, p<0.005
substance,measurement,setting,value
creatine pyruvate,Change of HB,[1],not different
same,Change of Hct,[1],not different
same,Change of LDL cholesterol,[1],just above the level of significance
same,Change of leukocyte number,[1],no difference
same,Change of number of erythrocytes,[1],decreased significantly
same,Change of uric acid concentration,[1],significant decrease
same,"Creatinine, CT mean",[1],1.19
same,"Creatinine, IT mean",[1],1.07 mg/dL
same,Effect on fat metabolism at rest,[1],no effect
same,Effects on kidney and liver function and fat metabolism parameters,[1],no adverse effects
same,"Erythrocytes, CT mean",[1],4.96
same,"Erythrocytes, IT mean",[1],5.3 10^6/µL
same,"Hb, CT mean",[1],15.4 g/dL
same,"Hb, IT mean",[1],15.56
same,"Hct, CT mean",[1],45.13
same,"Hct, IT mean",[1],45.5%
same,"Leukocytes, CT mean",[1],9386.67
same,"Leukocytes, IT mean",[1],8980 µL⁻¹
same,"PT, CT mean",[1],6.20
same,"PT, IT mean",[1],5.40
same,"Urea, CT mean",[1],30.00
same,"Urea, IT mean",[1],34.07
same,"Uric acid, CT mean",[1],5.29 mg/dL
same,"Uric acid, IT mean",[1],5.64 mg/dL
same,Muscle fatigue under highly intensive intermittent exertion,lower arm musculature [2]; [5],significant reduction in muscle fatigue
same,Relaxation rate,"lower arm musculature [2]; highly intensive intermittent work, 80% of maximum weight",showed a tendency to increase
same,Power calculated from the shortening rate,"lower arm musculature [2]; highly intensive intermittent work, 80% of maximum weight, analysis of variance, p<0.005",increased in all intervals
same,Contraction frequency,lower arm musculature [2]; [6],increased in all intervals
same,Force,lower arm musculature [2]; [6],increased in all intervals
same,Performance in highly intensive exertion,lower arm musculature [2]; short exertion and final intervals,significant increase in performance
same,"BIA fat measurement, CT mean",[3]; [7],16.63 kg
same,"BIA water measurement, CT mean",[3]; [7],47.39 kg
same,"Body fat (skinfold), CT mean",[3]; [7],11.59%
same,"Body weight, CT mean",[3]; [7],83.20 kg
same,"Circumference of lower elbow, CT mean",[3]; [7],29.62 cm
same,"Circumference of thickest point of the arm, CT mean",[3]; [7],29.67 cm
same,"BIA fat measurement, IT mean","[3]; initial test, day 1",16.69 kg
same,"BIA water measurement, IT mean","[3]; initial test, day 1",46.64 kg
same,"Body fat (skinfold), IT mean","[3]; initial test, day 1",11.33%
same,"Circumference of lower elbow, IT mean","[3]; initial test, day 1",28.94 cm
same,"Circumference of thickest point of the arm, IT mean","[3]; initial test, day 1",29.01 cm
same,"Body weight, IT mean","[3]; initial test, day 1, group A, 5.0 g per day over 28 days",81.70 kg
same,Change of body fat content (skinfold thickness and BIA),[3]; [8],no change in body fat content
same,Change of body weight,[3]; [8],increased significantly
same,Change of body fat content (skinfold thickness and BIA),"[3]; initial vs closing test, 5.0 g per day over 28 days, listed as A",remained the same
same,Change of body H2O,"[3]; initial vs closing test, one-sided test, p<0.05",increases in body H2O were significant
same,Change of circumference at the epicondyles,[3]; [9],The same applied
same,Change of circumference of the thickest part of the lower arm,[3]; [9],increased
same,Overacidification of muscle tissue in highly intensive intermittent exertion,lower arm musculature [4]; [5],"does not occur, or only occurs to a very slight extent"
same,Rise of maximum values during exertion (parameter not named at the place),"lower arm musculature [4]; t test for paired random samples, p<0.002",significantly lower rise
